Laboratory results from patent US20260356851A1, “TRICYCLIC COMPOUNDS AND USES THEREOF” (HUTCHMED LIMITED, priority 2023, published 2026).
Read-outs that look alike come from different tables or passages of the source.

Tests used:
Type in all cases: cell-based
[1] = target: T1, pERK1/2 (Thr202/Tyr204), NCI-1H358 (KRAS G12C) (Homo sapiens, UniProt P01116, G12C); test: Assay of intracellular pERK1/2 (Thr202/Tyr204) phosphorylation in NCI-H358 cells (KRAS G12C)
T1 construct: pERK1/2 HTRF read-out
In short: (§1)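 Cells (10000-12000/well) exposed to 3-fold compound dilutions for 2 days at 37 °C, then lysed; pERK1/2 (Thr202/Tyr204) measured by HTRF with d2 and cryptate antibodies, 665/615 nm ratio.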

[2] = target: T2, pERK1/2 (Thr202/Tyr204), PANC-1 (KRAS G121D) (Homo sapiens, UniProt P01116, G12D); test: Assay of intracellular pERK1/2 (Thr202/Tyr204) phosphorylation in PANC-1 cells (KRAS G12D)
T2 construct: pERK1/2 HTRF read-out
T2 sequence (P01116 1-188 isoform P01116-2 G12D): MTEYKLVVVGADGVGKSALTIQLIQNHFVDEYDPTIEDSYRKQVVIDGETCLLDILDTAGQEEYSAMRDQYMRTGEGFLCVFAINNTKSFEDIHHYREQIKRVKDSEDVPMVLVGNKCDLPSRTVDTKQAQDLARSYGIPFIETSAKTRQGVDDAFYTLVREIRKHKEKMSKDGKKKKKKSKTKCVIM
In short: as §1

[3] = target: T3, pERK1/2 (Thr202/Tyr204), NCI-1H441 (KRAS G12V) (Homo sapiens, UniProt P01116, G12V); test: Assay of intracellular pERK1/2 (Thr202/Tyr204) phosphorylation in NCI-H441 cells (KRAS G12V)
T3 construct: pERK1/2 HTRF read-out
T3 sequence (P01116 1-188 isoform P01116-2 G12V): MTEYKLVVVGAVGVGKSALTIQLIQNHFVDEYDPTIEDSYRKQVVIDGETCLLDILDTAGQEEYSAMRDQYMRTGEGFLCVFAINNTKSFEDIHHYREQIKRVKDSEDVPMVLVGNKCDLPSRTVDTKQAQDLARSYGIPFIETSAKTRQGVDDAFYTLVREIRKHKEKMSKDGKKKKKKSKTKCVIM
In short: as §1

[4] = pERK1/2, 2 days, read-out: NCI-H358 (KRAS G12C) IC50
[5] = pERK1/2, 2 days, read-out: PANC-1 (KRAS G12D) IC50
[6] = pERK1/2, 2 days, read-out: NCI-H441 (KRAS G12V) IC50

T1 sequence (P01116 1-188 isoform P01116-2 G12C): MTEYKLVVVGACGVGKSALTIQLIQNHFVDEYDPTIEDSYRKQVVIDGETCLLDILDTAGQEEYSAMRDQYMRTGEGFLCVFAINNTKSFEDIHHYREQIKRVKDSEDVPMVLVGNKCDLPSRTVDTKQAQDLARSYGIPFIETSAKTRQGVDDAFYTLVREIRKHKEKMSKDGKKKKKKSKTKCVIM

Row | SMILES | IC50 [1, 4] | IC50 [2, 5] | IC50 [3, 6] | IC50 ([1]; read-out: NCI-H358 (KRAS G12C) IC50, pERK1/2, 2 days) | IC50 ([2]; read-out: PANC-1 (KRAS G12D) IC50, pERK1/2, 2 days) | IC50 ([3]; read-out: NCI-H441 (KRAS G12V) IC50, pERK1/2, 2 days)
1 | Cc1c(F)c(N)cc(-c2nc3c4c(nc(OC[C@@]56CCCN5C[C@@H](F)C6)nc4c2F)N(C(C)c2cccnc2N)CCO3)c1C(F)(F)F (stereo partly drawn) [Compound 165] | 1 nM | 47 nM | 3 nM |  |  | 
2 | Cc1c(F)c(N)cc(-c2nc3c4c(nc(OC[C@@]56CCCN5C[C@H](F)C6)nc4c2F)N(Cc2cccnc2N)CCO3)c1C(F)(F)F [Compound 180] | 1 nM | 35 nM | 6 nM |  |  | 
3 | Cc1cc(N)cc(-c2nc3c4c(nc(OC[C@@]56CCCN5C[C@H](F)C6)nc4c2F)N(C(C)c2cccnc2N)C2(CC2)CO3)c1C(F)(F)F (stereo partly drawn) [Compound 181] | > 100 nM | > 100 nM | > 100 nM |  |  | 
4 | Cc1c(F)c(N)cc(-c2nc3c4c(nc(OC[C@@]56CCCN5C[C@H](F)C6)nc4c2F)N(C2(c4cccnc4N)CC2)CCO3)c1C(F)(F)F [Compound 187] | 63 nM | > 100 nM | 44 nM |  |  | 
5 | Cc1c(F)c(N)cc(-c2nc3c4c(nc(OC[C@@]56CCC(=O)N5C[C@H](F)C6)nc4c2F)N(C(C)c2cccnc2N)CCO3)c1C(F)(F)F (stereo partly drawn) [Compound 195] | 33 nM | > 100 nM | 99 nM |  |  | 
6 | Cc1c(F)c(N)cc(-c2nc3c4c(nc(OC[C@@]56CCCN5C[C@H](F)C6)nc4c2F)N(C2CC2)CCO3)c1C(F)(F)F [Compound 196] | > 100 nM | > 100 nM | > 100 nM |  |  | 
7 | C#Cc1c(F)ccc2cc(O)cc(-c3nc4c5c(nc(OC[C@@]67CCCN6C[C@H](F)C7)nc5c3F)N(C3CC3)CCO4)c12 [Compound 197] | > 100 nM | > 100 nM | > 100 nM |  |  | 
8 | Cc1c(F)c(N)cc(-c2nc3c4c(nc(OC[C@@]56CCCN5C[C@H](F)C6)nc4c2F)N(C2CCNC2)CCO3)c1C(F)(F)F (stereo partly drawn) [Compound 198] | > 100 nM | > 100 nM | > 100 nM |  |  | 
9 | Cc1c(F)c(N)cc(-c2nc3c4c(nc(OC[C@@]56CCCN5C[C@H](F)C6)nc4c2F)N(C(C)c2cccnc2N)CCO3)c1Cl (stereo partly drawn) [Compound 204] | 1 nM | 49 nM | 4 nM |  |  | 
10 | [2H]C1([2H])CC[C@@]2(COc3nc4c5c(nc(-c6cc(N)c(F)c(Cl)c6C(F)(F)F)c(F)c5n3)OC([2H])([2H])C([2H])([2H])N4C(C)c3ccc[n+]([O-])c3N)C[C@@H](F)CN12 (stereo partly drawn) [Compound 224] | > 100 nM | > 100 nM | > 100 nM |  |  | 
11 | Cc1c(F)c(N)cc(-c2nc3c4c(nc(OC[C@@]56CCCN5C[C@H](F)C6)nc4c2F)N(C(C)c2ccc[n+]([O-])c2N)CCO3)c1C(F)(F)F (stereo partly drawn) [Compound 226] | 43 nM | > 100 nM | > 100 nM |  |  | 
12 | CC(c1cccnc1N)N1CCOc2nc(-c3cc(N)c(F)c(Cl)c3Cl)c(F)c3nc(OC[C@@]45CCCN4C[C@H](F)C5)nc1c23 (stereo partly drawn) [Compound 233] | 1 nM | 32 nM | 3 nM |  |  | 
13 | Cc1cc(N)cc(-c2nc3c4c(nc(OC[C@@]56CCCN5C[C@H](F)C6)nc4c2F)N(C(C)c2cccnc2N)[C@@H](C)CO3)c1C(F)(F)F (stereo partly drawn) [Compound 262] | 28 nM | 40 nM | 47 nM |  |  | 
14 | CC(=O)Nc1ncccc1C(C)N1CCOc2nc(-c3cc(N)c(F)c(C)c3C(F)(F)F)c(F)c3nc(OC[C@@]45CCCN4C[C@H](F)C5)nc1c23 (stereo partly drawn) [Compound 266] | 95 nM | > 100 nM | > 100 nM |  |  | 
15 | CCNC(=O)Oc1cc(Cl)c(C2CC2)c(-c2nc3c4c(nc(OC[C@@]56CCCN5C[C@H](F)C6)nc4c2F)N(C(C)c2cccnc2N)[C@@H](C)CO3)c1 (stereo partly drawn) [Compound 293, (*)3-((9S)-10-(1-(2-aminopyridin-3-yl)ethyl)-4-fluoro-2-(((2R,7aS)-2-fluorotetrahydro-1H-pyrrolizin-7a(5H)-yl)methoxy)-9-methyl-9,10-dihydro-8H-7-oxa-1,3,6,10-tetraazacyclohepta[de]naphthalen-5-yl)-5-chloro-4-cyclopropylphenyl ethylcarbamate acetate] |  |  |  | 1 nM | 0.5 nM | 1 nM

More lines, main results first:

Row | IC50 [1, 4] | IC50 [2, 5] | IC50 [3, 6] | SMILES | IC50 ([1]; read-out: NCI-H358 (KRAS G12C) IC50, pERK1/2, 2 days) | IC50 ([2]; read-out: PANC-1 (KRAS G12D) IC50, pERK1/2, 2 days) | IC50 ([3]; read-out: NCI-H441 (KRAS G12V) IC50, pERK1/2, 2 days)
16 | 0.2 nM | 3 nM | 0.3 nM | Cc1c(F)c(N)cc(-c2nc3c4c(nc(OC[C@]56CCCN5C[C@H](F)C6)nc4c2F)N(C(C)c2cccnc2N)CCO3)c1C(F)(F)F (stereo partly drawn) [Compound 164] |  |  | 
17 | 0.2 nM | 2 nM | 0.4 nM | CC(c1cccnc1N)N1CCOc2nc(-c3cc(N)c(F)c(Cl)c3C(F)(F)F)c(F)c3nc(OC[C@@]45CCCN4C[C@H](F)C5)nc1c23 (stereo partly drawn) [Compound 168] |  |  | 
18 | 0.5 nM | 27 nM | 2 nM | Cc1c(F)c(N)cc(-c2nc3c4c(nc(OC[C@@]56CCCN5CC(F)(F)C6)nc4c2F)N(C(C)c2cccnc2N)CCO3)c1C(F)(F)F (stereo partly drawn) [Compound 171] |  |  | 
19 | 0.5 nM | 7 nM | 0.8 nM | Cc1cc(N)cc(-c2nc3c4c(nc(OC[C@@]56CCCN5C[C@H](F)C6)nc4c2F)N(C(C)c2cc(F)cnc2N)CCO3)c1C(F)(F)F (stereo partly drawn) [Compound 173] |  |  | 
20 | 0.7 nM | 11 nM | 2 nM | Cc1c(F)c(N)cc(-c2nc3c4c(nc(OC[C@@]56CCCN5C[C@H](F)C6)nc4c2F)N(C(C)c2cc(F)cnc2N)CCO3)c1C(F)(F)F (stereo partly drawn) [Compound 177] |  |  | 
21 | 0.3 nM | 13 nM | 1 nM | Cc1c(F)c(N)cc(-c2nc3c4c(nc(OC[C@@H]5C[C@@H](F)CN5C)nc4c2F)N(C(C)c2cccnc2N)CCO3)c1C(F)(F)F (stereo partly drawn) [Compound 185] |  |  | 
22 | 0.3 nM | 11 nM | 1 nM | CC(c1cccnc1N)N1CCOc2nc(-c3cc(N)c(F)c(Cl)c3C(F)(F)F)c(F)c3nc(OC[C@@H]4C[C@@H](F)CN4C)nc1c23 (stereo partly drawn) [Compound 205] |  |  | 
23 | 0.5 nM | 4 nM | 1 nM | Cc1c(F)c(N)cc(-c2nc3c4c(nc(OCC56CCCN5CC5(CC5)C6)nc4c2F)N(C(C)c2cccnc2N)CCO3)c1C(F)(F)F (stereo not drawn) [Compound 218] |  |  | 
24 | 0.1 nM | 2 nM | 0.4 nM | [2H]C1([2H])CC[C@@]2(COc3nc4c5c(nc(-c6cc(N)c(F)c(Cl)c6C(F)(F)F)c(F)c5n3)OCCN4C(C)c3cccnc3N)C[C@@H](F)CN12 (stereo partly drawn) [Compound 221] |  |  | 
25 | 0.2 nM | 0.5 nM | 0.5 nM | Cc1cc(N)cc(-c2nc3c4c(nc(OC[C@@]56CCCN5C/C(=C\F)C6)nc4c2F)N(C(C)c2cccnc2N)CCO3)c1C(F)(F)F (stereo partly drawn) [Compound 225] |  |  | 
26 | 0.1 nM | 0.5 nM | 0.5 nM | CC(c1cccnc1N)N1CCOc2nc(-c3cc(N)c(F)c(Cl)c3C(F)(F)F)c(F)c3nc(OC[C@@]45CCCN4C/C(=C\F)C5)nc1c23 (stereo partly drawn) [Compound 229] |  |  | 
27 | 0.1 nM | 1 nM | 0.5 nM | Cc1c(F)c(N)cc(-c2nc3c4c(nc(OC[C@@]56CCCN5C/C(=C\F)C6)nc4c2F)N(C(C)c2cccnc2N)CCO3)c1C(F)(F)F (stereo partly drawn) [Compound 230] |  |  | 
28 | 0.2 nM | 0.8 nM | 0.2 nM | [2H]C1([2H])CC[C@@]2(COc3nc4c5c(nc(-c6cc(N)cc(C)c6C(F)(F)F)c(F)c5n3)OCCN4C(C)c3cccnc3N)C[C@@H](F)CN12 (stereo partly drawn) [Compound 231] |  |  | 
29 | 0.2 nM | 5 nM | 0.9 nM | CC(c1cccnc1N)N1CCOc2nc(-c3cc(N)c(F)c(Cl)c3C3CC3)c(F)c3nc(OC[C@@]45CCCN4C[C@H](F)C5)nc1c23 (stereo partly drawn) [Compound 232] |  |  | 
30 | 0.3 nM | 1 nM | 0.4 nM | Cc1cc(N)cc(-c2nc3c4c(nc(OC[C@@]56CCCN5CC5(CC5(F)F)C6)nc4c2F)N(C(C)c2cccnc2N)CCO3)c1C(F)(F)F (stereo partly drawn) [Compound 237] |  |  | 
31 | 0.2 nM | 1 nM | 0.5 nM | Cc1c(F)c(N)cc(-c2nc3c4c(nc(OC[C@@]56CCCN5CC(=C(F)F)C6)nc4c2F)N(C(C)c2cccnc2N)CCO3)c1C(F)(F)F (stereo partly drawn) [Compound 243] |  |  | 
32 | 0.9 nM | 1 nM | 1 nM | C#Cc1c(F)ccc2cc(O)cc(-c3nc4c5c(nc(OC[C@@]67CCCN6C[C@H](F)C7)nc5c3F)N(C(C)c3cccnc3N)CCO4)c12 (stereo partly drawn) [Compound 259] |  |  | 
33 | 0.2 nM | 0.4 nM | 0.5 nM | CC(c1cccnc1N)N1c2nc(OC[C@@]34CCCN3C[C@H](F)C4)nc3c(F)c(-c4cc(O)cc(Cl)c4C4CC4)nc(c23)OC[C@@H]1C (stereo partly drawn) [Compound 268] |  |  | 
34 | 0.2 nM | 1 nM | 0.5 nM | CC(c1cccnc1N)N1c2nc(OC[C@@H]3C[C@@H](F)CN3C)nc3c(F)c(-c4cc(O)cc5ccc(F)c(F)c45)nc(c23)OC[C@@H]1C (stereo partly drawn) [Compound 281] |  |  | 
35 | 0.3 nM | 4 nM | 1 nM | CC(c1cccnc1N)N1c2nc(OC[C@@H]3C[C@@H](F)CN3C)nc3c(F)c(-c4cc(N)c(F)c(Cl)c4C(F)(F)F)nc(c23)OC[C@@H]1C (stereo partly drawn) [Compound 289] |  |  | 
36 | 0.2 nM | 0.2 nM | 0.3 nM | CCc1c(F)ccc2cc(O)cc(-c3nc4c5c(nc(OC[C@@H]6C[C@@H](F)CN6C)nc5c3F)N(C(C)c3cccnc3N)[C@@H](C)CO4)c12 (stereo partly drawn) [Compound 290] |  |  | 
37 | 0.1 nM | 1 nM | 0.3 nM | CC(c1cccnc1N)N1c2nc(OC[C@@H]3C[C@@H](F)CN3C)nc3c(F)c(-c4cc(O)cc(Cl)c4C4CC4)nc(c23)OC[C@@H]1C (stereo partly drawn) [Compound 291] |  |  | 
